The target of this experiment is RET G810R (Homo sapiens (Human), UniProt P07949, G810R). Put plainly: HTRF KinEASE-TK kinase activity test, RET G810R. Particulars: for inhibitory activity against RET G810R relative to that of selpercatinib (LOXO-292): fold versus selpercatinib (LOXO-292).
The mark [1] stands for this setting: read-out: RET G810R IC50, HTRF kinase assay.

Like-named read-outs stand apart in the source and are kept apart here.

RET G810R, sequence (P07949 29-1114 G810R): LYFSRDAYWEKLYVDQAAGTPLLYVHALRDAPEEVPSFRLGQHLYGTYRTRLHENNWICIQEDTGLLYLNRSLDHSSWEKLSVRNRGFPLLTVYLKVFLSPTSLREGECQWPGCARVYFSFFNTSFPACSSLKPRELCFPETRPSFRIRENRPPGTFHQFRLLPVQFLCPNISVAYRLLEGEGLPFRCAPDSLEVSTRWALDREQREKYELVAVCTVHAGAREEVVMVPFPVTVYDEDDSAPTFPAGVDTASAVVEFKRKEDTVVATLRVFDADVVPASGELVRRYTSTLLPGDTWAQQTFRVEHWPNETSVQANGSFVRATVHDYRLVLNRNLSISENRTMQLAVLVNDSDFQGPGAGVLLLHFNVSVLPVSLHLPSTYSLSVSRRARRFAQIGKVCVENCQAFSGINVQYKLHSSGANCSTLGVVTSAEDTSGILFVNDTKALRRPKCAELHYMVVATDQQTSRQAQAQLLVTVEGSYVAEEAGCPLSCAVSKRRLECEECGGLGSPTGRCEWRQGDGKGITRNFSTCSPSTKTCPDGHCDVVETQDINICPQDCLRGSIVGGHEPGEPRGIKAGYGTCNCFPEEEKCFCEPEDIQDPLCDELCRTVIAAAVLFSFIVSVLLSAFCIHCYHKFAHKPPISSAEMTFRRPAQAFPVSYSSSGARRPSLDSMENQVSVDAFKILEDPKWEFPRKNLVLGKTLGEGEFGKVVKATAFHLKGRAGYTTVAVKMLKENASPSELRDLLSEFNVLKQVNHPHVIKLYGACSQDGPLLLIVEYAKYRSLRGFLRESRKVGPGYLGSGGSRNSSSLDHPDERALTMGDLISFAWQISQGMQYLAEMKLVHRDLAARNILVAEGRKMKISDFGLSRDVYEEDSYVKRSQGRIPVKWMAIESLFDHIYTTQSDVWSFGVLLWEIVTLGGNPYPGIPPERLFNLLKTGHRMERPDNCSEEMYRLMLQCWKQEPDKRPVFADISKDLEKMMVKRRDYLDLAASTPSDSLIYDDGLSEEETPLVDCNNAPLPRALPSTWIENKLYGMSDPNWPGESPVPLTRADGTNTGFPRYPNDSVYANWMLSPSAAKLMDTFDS

Turning to `CCOc1cc(-c2ccc(N3CCC4(CCCN4Cc4ccc(OC)nc4)CC3)nc2)c2c3cn[nH]c3nn2c1` [Compound 207, 6-ethoxy-4-(6-(1-((6-methoxypyridin-3-yl)methylene)-1,8-diazaspiro[4.5]octan-8-yl)pyridin-3-yl) -1H-pyrazolo[3′,4′:3,4]pyrazolo[1,5-α]pyridine], under setting [1], the IC50 (in general, the concentration that gives 50% inhibition) was 49 nM. Same read-out and setting: next, `CCOc1cc(-c2ccc(N3CC4(CCCN4Cc4ccc(OC)nc4)C3)nc2)c2c3cn[nH]c3nn2c1` [Compound 188, 6-ethoxy-4-(6-(5-((6-methoxypyridin-3-yl)methyl)-2,5-diazaspiro[3.4]octan-2-yl)pyridin-3-yl)-1 H-pyrazolo[3′,4′:3,4]pyrazolo[1,5-α]pyridine]: 16.9 nM.

Turning to `O=C(N[C@H]1CCN(c2ccc(-c3cc(OCC(F)F)cn4nc5[nH]ncc5c34)cn2)C[C@H]1O)c1cc(F)ccc1Cl` [Compound 293, N-((3R,4S)-1-(5-(6-(2,2-difluoroethoxy)-1H-pyrazolo[3′,4′:3,4]pyrazolo[1,5-α]pyridin-4-yl)pyridin-2-yl)piperidin-3-hydroxypiperidin-4-yl)-2-chloro-5-fluorobenzamide], the “inhibitory activity against RET G810R relative to that of selpercatinib (LOXO-292)” value is at least 10 times. In addition, the IC50 under setting [1] is 1.6 nM. For `CCOc1cc(-c2ccc(N3CCC(O)(CNS(=O)(=O)c4ccccc4)CC3)nc2)c2c3cn[nH]c3nn2c1` [Compound 102, N-((1-(5-(6-ethoxy-1H-pyrazolo[3′,4′:3,4]pyrazolo[1,5-α]pyridin-4-yl)pyridin-2-yl)-4-hydroxypiperidin-4-yl)methylene)benzenesulfonamide], the “inhibitory activity against RET G810R relative to that of selpercatinib (LOXO-292)” value is at least 10 times. The IC50 under setting [1] came to 3.6 nM. Turning to `CCOc1cc(-c2ccc(N3CCC(CN4CCOCC4)(NC(=O)CC(C)C)CC3)nc2)c2c3cn[nH]c3nn2c1` [Compound 29], the IC50 under setting [1] came out at 8.8 nM. In the case of `CCOc1cc(-c2ccc(N3CC4CCC3CN4C(=O)c3c(F)cccc3Cl)nc2)c2c3cn[nH]c3nn2c1` (stereo not drawn) [Compound 159], the IC50 under setting [1] came out at 16.1 nM. On to `CCOc1cc(-c2ccc(N3CC[C@H](NC(=O)C4(C(F)(F)F)CCC4)[C@H](O)C3)nc2)c2c3cn[nH]c3nn2c1` [Compound 281, N-((3R,4S)-1-(5-(6-ethoxy-1H-pyrazolo[3′,4′:3,4]pyrazolo[1,5-α]pyridin-4-yl)pyridin-2-yl)-3-hydroxypiperidin-4-yl)-1-(trifluoromethyl)cyclobutane-1-carboxamide], for which the “inhibitory activity against RET G810R relative to that of selpercatinib (LOXO-292)” value is recorded as at least 10 times. For the same compound, the IC50 under setting [1] is 1.5 nM.

Take `CCOc1cc(-c2ccc(N3CC[C@H](NS(=O)(=O)c4c(F)cccc4F)[C@H](O)C3)nc2)c2c3cn[nH]c3nn2c1` [Compound 269, N-((3R,4S)-1-(5-(6-ethoxy-1H-pyrazolo[3′,4′:3,4]pyrazolo[1,5-α]pyridin-4-yl)pyridin-2-yl)-3-hydroxypiperidin-4-yl)-2,6-difluorobenzenesulfonamide]: the “inhibitory activity against RET G810R relative to that of selpercatinib (LOXO-292)” value was at least 10 times. The half-maximal inhibitory concentration (IC50) under setting [1] was 6.2 nM. In the same order, the values of `CCOc1cc(-c2ccc(N3CCC(CN(C)C)(NC(=O)c4c(F)cccc4F)CC3)nc2)c2c3cn[nH]c3nn2c1` [Compound 234, N-(4-((dimethylamino)methyl)-1-(5-(6-ethoxy-1H-pyrazolo[3′,4′:3,4]pyrazolo[1,5-α]pyridin-4-yl)pyridin-2-yl)piperidin-4-yl)-2,6-difluorobenzamide] are at least 10 times and 1.6 nM. In the case of `CCOc1cc(-c2ccc(N3CC4CCC3CN4Cc3ccc(OC)nc3)nc2)c2c3cn[nH]c3nn2c1` (stereo not drawn) [Compound 160, 6-ethoxy-4-(6-(5-((6-methoxypyridin-3-yl)methyl)-2,5-diazabicyclo[2.2.2]octan-2-yl)pyridin-3-y 1)-1H-pyrazolo[3′,4′:3,4]pyrazolo[1,5-α]pyridine], the IC50 under setting [1] is 8.2 nM. With `O=C(N[C@H]1CCN(c2ccc(-c3cc(OCCF)cn4nc5[nH]ncc5c34)cn2)C[C@@H]1O)c1c(F)cccc1F` [Compound 295, N-((3S,4S)-1-(5-(6-(2-fluoroethoxy)-1H-pyrazolo[3′,4′:3,4]pyrazolo[1,5-α]pyridin-4-yl)pyridin-2-yl)-3-hydroxypiperidin-4-yl)-2,6-difluorobenzamide], the “inhibitory activity against RET G810R relative to that of selpercatinib (LOXO-292)” value was at least 10 times. Moreover, the half-inhibitory concentration (IC50) under setting [1] is 2.1 nM. As to `CCOc1cc(-c2ccc(N3C4CCC3CN(C(=O)c3c(F)cccc3Cl)C4)nc2)c2c3cn[nH]c3nn2c1` [Compound 157, (2-chloro-6-fluoro)((1R,5S)-8-(5-(6-ethoxy-1H-pyrazolo[3′,4′:3,4]pyrazolo[1,5-α]pyridin-4-yl)pyridin-2-yl)-3,8-diazabicyclo[3.2.1]octan-3-yl)benzamide], the half-inhibitory concentration (IC50) under setting [1] is 8.6 nM.

For `CCOc1cc(-c2ccc(N3CCC4(CC3)CCN4C(=O)c3c(F)cccc3Cl)nc2)c2c3cn[nH]c3nn2c1` [Compound 201, N-(7-(5-(6-ethoxy-1H-pyrazolo[3′,4′:3,4]pyrazolo[1,5-α]pyridin-4-yl)pyridin-2-yl)-1,7-diazaspiro [3.5]nonan-1-yl)-2-chloro-6-fluorobenzamide], the IC50 under setting [1] came to 4.1 nM.

Regarding `CCOc1cc(-c2cnc(N3CCC(C)(NC(=O)c4cc(F)ccc4Cl)CC3)cn2)c2c3cn[nH]c3nn2c1` [Compound 58, 2-chloro-N-(1-(5-(6-ethoxy-1H-pyrazolo[3′,4′:3,4]pyrazolo[1,5-α]pyridin-4-yl)pyrazin-2-yl)-4-methylpiperidin-4-yl)-5-fluorobenzamide], the half-inhibitory concentration (IC50) under setting [1] stood at 5.6 nM. Same read-out and setting: next, `CCOc1cc(-c2ccc(N3CC[C@H](NC(=O)C(C)C(C)C)[C@H](O)C3)nc2)c2c3cn[nH]c3nn2c1` (stereo partly drawn) [Compound 283, N-((3R,4S)-1-(5-(6-ethoxy-1H-pyrazolo[3′,4′:3,4]pyrazolo[1,5-α]pyridin-4-yl)pyridin-2-yl)-3-hydroxypiperidin-4-yl)-2,3-dimethylbutanamide]: 9.9 nM. As to `CCOc1cc(-c2ccc(N3CC[C@H](NC(=O)c4c(F)cccc4F)[C@H](O)C3)nc2)c2c3cn[nH]c3nn2c1` [Compound 233], the “inhibitory activity against RET G810R relative to that of selpercatinib (LOXO-292)” value is recorded as at least 10 times. Under setting [1], the IC50 came to 0.96 nM. With `CCOc1cc(-c2ccc(N3CC[C@H](NC(=O)c4ccccc4C(F)(F)F)[C@H](O)C3)nc2)c2c3cn[nH]c3nn2c1` [Compound 279, N-((3R,4S)-1-(5-(6-ethoxy-1H-pyrazolo[3′,4′:3,4]pyrazolo[1,5-α]pyridin-4-yl)pyridin-2-yl)-3-hydroxypiperidin-4-yl)-2-(trifluoromethyl)benzamide], the “inhibitory activity against RET G810R relative to that of selpercatinib (LOXO-292)” value is listed as at least 10 times. The half-maximal inhibitory concentration (IC50) under setting [1] turned out to be 2.2 nM. As to `COc1ccc(CN2C3CC2CN(c2ccc(-c4cc(C(=O)O)cn5nc6[nH]ncc6c45)cn2)C3)cn1` [Compound 239, 4-(6-(6-((6-methoxypyridin-3-yl)methyl)-3,6-diazabicyclo[3.1.1]heptan-3-yl)pyridin-3-yl)-1H-py razolo[3′,4′:3,4]pyrazolo[1,5-α]pyridine-6-carboxylic acid], the 50% inhibitory concentration (IC50) under setting [1] is 33.7 nM.

`CCOc1cc(-c2ccc(N3CC4CC(C3)N4Cc3ccc(OC)nc3)nc2)c2c3cc[nH]c3nn2c1` [Compound 297, 6-ethoxy-4-(6-(6-((6-methoxypyridin-3-yl)methyl)-3,6-diazabicyclo[3.1.1]heptan-3-yl)pyridin-3-yl)-1H-pyrrolo[2′,3′:3,4]pyrazolo[1,5-α]pyridine] yielded an IC50 of 9.6 nM.

The record behind these values is patent US20240174674A1, “NITROGEN-CONTAINING POLYCYCLIC FUSED RING COMPOUND, PHARMACEUTICAL COMPOSITION THEREOF, PREPARATION METHOD THEREFOR, AND USE THEREOF” (APPLIED PHARMACEUTICAL SCIENCE, INC., priority 2021, published 2024).
